In US11747335B2, “Compositions and methods for assaying platelet reactivity and treatment selection” (University of Vermont And State Agriculture College, priority 2012, dated 2023):
Entries after “also recorded” stand apart in the source; their conditions may differ. Like-named read-outs stand apart in the source and are kept apart here.

How the values were obtained:
[1] = tested on: FcγRIIa; assay: Phosphorylation of FcγRIIa during platelet activation (immunoprecipitation, Western blot with anti-phosphotyrosine); format: cell-based, human
Procedure: Whole platelet lysates were prepared by the addition of an equal volume of 2× lysis buffer (2% Nonidet P-40 1, 300 mM NaCl, 50 mM Tris, 2 mM Na3VO4, halt protease and phosphatase inhibitor cocktail [Pierce Biochemicals], ph 7.3) in an ice bath for 30 min. Lysates to be used for immunoprecipitation were pre-cleared of antibodies by the addition of protein G Dynabeads (Invitrogen, Carlsbad, Calif.).
Immunoprecipitation was performed overnight at 4° C. with the use of goat anti-CD32A/C (Santa Cruz Biotechnology, Santa Cruz, Calif.) or a mouse anti-phosphotyrosine conjugated with magnetic beads (4G10, Millipore, Billerica, Mass.). When anti-CD32A/C was used, antigen-antibody complexes were isolated with the use of protein G-coated magnetic beads (Dynabeads, Invitrogen, Carlsbad, Calif.) for 3 hours. Beads with antigen-antibody complexes were washed once with 0.5× lysis buffer and twice with phosphate buffered saline. Proteins were separated from beads in sample buffer before electrophoresis and wet transfer to Immobilon FL membranes (Millipore, Billerica, Mass.). […] Bands were detected with the use of use of a Li-Cor Odyssey Infrared Imaging system (Li-Cor Biosciences, Lincoln, Nebr.) or chemiluminescence (Amersham/General Electric Healthcare, Piscataway, N.J.).

[2] = tested on: Megakaryocyte cell line; assay: Expression of FcγRIIa by a megakaryocyte cell line; format: cell-based; conditions: IFNγ treatment; FIG. 10
[3] = tested on: human stem cell derived Megakaryocytes; assay: Expression of FcγRIIa by human stem cell derived megakaryocytes; format: cell-based; conditions: IFNγ treatment; FIG. 11
[4] = tested on: platelets; assay: cells; format: cell-based, human; conditions: for fold induction at 0.5 µg/mL: Homo sapiens, Platelet
From the text: Volumes used minimize aggregation of platelets during activation. Activation of platelets was identified by anti-CD62-phycoerythrin (PE, identifies P-selectin) and fluorescein isothiocyanate (FITC)-conjugated PAC-1 (binds to activated GP IIb-IIIa) as described (Serrano F A, et al., Thromb J 2007; 5:7; Schneider D J, et al., Circulation 96:2877-83, 1997; Kabbani S S, et al., Circulation 2001; 104:181-6; Aggarwal A, et al., Am J Kidney Dis 2002; 40:315-22; and Schneider D J, et al., Diabetes Care, 32:944-9, 2009). Platelet expression of FcγRIIa was quantified with the use of anti-CD32-PE. For both assays (activation and quantification of expression of FcγRIIa) PE-Cy5-anti-CD42b was used as an activation independent marker of platelets. […] Fluorochrome labeled antibodies were from Becton Dickinson (San Jose, Calif.). […] Louis, Mo.), and ADP from BioData (Horsham, Pa.). […] J. et al., J Exp Med 1986; 163:826-836). The SRC kinase antagonist PP2 (EMD Biosciences) was dissolved in dimethylsulfoxide (DMSO, Sigma). Tirofiban was obtained from Merck Research Laboratories (Whitehouse Station, N.J.). The reaction mixture was incubated for 15 minutes at room temperature without stirring before platelets were fixed and erythrocytes lysed by addition of Optilyse-C solution (Beckman Coulter). Flow cytometric analysis was performed with the use of a Beckman Coulter FC500 (Miami, Fla.). Platelets were identified on the basis of size (forward and side scatter) and the binding of an activation independent ligand (anti-CD42b). As described, control samples to define a threshold for activation-dependent binding used non-immune IgG (Serrano F A, et al., Thromb J 2007; 5:7; Schneider D J, et al., Circulation 96:2877-83, 1997; Kabbani S S, et al., Circulation 2001; 104:181-6; Aggarwal A, et al., Am J Kidney Dis 2002; 40:315-22; and Schneider D J, et al., Diabetes Care, 32:944-9, 2009). Activation of platelets is reported as the percentage of platelets that bound an activation dependent ligand, a result that we have shown correlates directly with mean fluorescence intensity (Schneider D J, et al., Thromb Haemost 2001; 85:309-13).

[5] = tested on: platelets; assay: Platelet activation in whole blood by flow cytometry, binding of PAC-1 (activated GP IIb-IIIa); format: cell-based, human
From the text: Volumes used minimize aggregation of platelets during activation. Activation of platelets was identified by anti-CD62-phycoerythrin (PE, identifies P-selectin) and fluorescein isothiocyanate (FITC)-conjugated PAC-1 (binds to activated GP IIb-IIIa) as described (Serrano F A, et al., Thromb J 2007; 5:7; Schneider D J, et al., Circulation 96:2877-83, 1997; Kabbani S S, et al., Circulation 2001; 104:181-6; Aggarwal A, et al., Am J Kidney Dis 2002; 40:315-22; and Schneider D J, et al., Diabetes Care, 32:944-9, 2009). Platelet expression of FcγRIIa was quantified with the use of anti-CD32-PE. For both assays (activation and quantification of expression of FcγRIIa) PE-Cy5-anti-CD42b was used as an activation independent marker of platelets. […] Fluorochrome labeled antibodies were from Becton Dickinson (San Jose, Calif.). […] Louis, Mo.), and ADP from BioData (Horsham, Pa.). […] J. et al., J Exp Med 1986; 163:826-836). The SRC kinase antagonist PP2 (EMD Biosciences) was dissolved in dimethylsulfoxide (DMSO, Sigma). Tirofiban was obtained from Merck Research Laboratories (Whitehouse Station, N.J.). […] Activation of platelets is reported as the percentage of platelets that bound an activation dependent ligand, a result that we have shown correlates directly with mean fluorescence intensity (Schneider D J, et al., Thromb Haemost 2001; 85:309-13).

Nc1ncnc2c1ncn2[C@@H]1O[C@H](COP(=O)(O)OP(=O)(O)O)[C@@H](O)[C@H]1O [ADP, adenosine diphosphate]
time after exposure at which phosphorylation of FcγRIIa was greatest ([1]; platelets from healthy subjects, thrombin 50 nM, convulxin 10 ng/ml, ADP 25 μM, PAF 100 nM): 3 to 5 min

IFNγ: cytokine that increases FcγRIIa expression by megakaryocytes
effect on expression of FcγRIIa by a Megakaryocyte cell line [2]: increases
effect on expression of FcγRIIa by human stem cell derived Megakaryocytes [3]: increases

CC(C)(C)n1nc(-c2ccc(Cl)cc2)c2c(N)ncnc21 [PP2]
effect of PP2 on agonist-induced platelet activation, P-selectin expression ([4]; PP2 20 μM vs vehicle DMSO, whole blood, healthy subjects n=7, FIG. 6B): inhibited activation induced by each agonist
effect of PP2 on agonist-induced platelet activation, PAC-1 binding ([5]; PP2 20 μM vs vehicle DMSO, whole blood, healthy subjects n=7, FIG. 6A): inhibited activation induced by each agonist
effect of PP2 on phosphorylation of FcγRIIa during platelet activation ([1]; PP2 20 μM): prevented phosphorylation

CCCCS(=O)(=O)N[C@@H](Cc1ccc(OCCCCC2CCNCC2)cc1)C(=O)O [tirofiban]
fold induction at 0.5 µg/mL ([4]; read-out: fold induction of ADP induced platelet activation by added fibrinogen after pretreatment with tirofiban): 1.2 ± 0.1
fold induction at 0.5 µg/mL ([4]; read-out: fold induction of ADP-induced platelet activation by added Factor XIII after pretreatment with tirofiban): 0.8 ± 0.2
effect of tirofiban on platelet activation induced by goat anti-FcγRIIa ([4]; tirofiban 0.5 μg/ml, activator goat anti-FcγRIIa): nor did it alter activation
effect of tirofiban on agonist-induced P-selectin expression ([4]; tirofiban 0.5 μg/ml, n=3 subjects, FIG. 5D): did not attenuate
effect of tirofiban on binding of PAC-1 to platelets ([5]; tirofiban 0.5 μg/ml): blocked completely; also recorded: abolished binding of PAC-1
